Data on 1 molecule can be found in USH1923H, “Herbicidal (oxaalkyl) phenyl-substituted heterocycles” (FMC Corporation, priority 1998, dated 2000).

In test [1] the test system is green foxtail. The test is described as follows: preemergence herbicidal activity on green foxtail. It is filed as in vivo. Particulars: Setaria viridis, pre-emergence, 0.3 Kg/Ha, after 12-17 days, read-out: PREEMERGENCE HERBICIDAL ACTIVITY (% CONTROL) SETVI. The essentials: (§1)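 Pre- and postemergence flats are sprayed side by side on a conveyor at a coverage of 1000 L/ha, with rates such as 3000 g/ha. Phytotoxicity is expressed as percent control after 12-17 days.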

In test [2] the test system is soybean. Kind of test: preemergence herbicidal activity on soybean. It is filed as in vivo, Glycine max var. Winchester. Particulars: Glycine max, pre-emergence, 0.3 Kg/Ha, after 12-17 days, read-out: PREEMERGENCE HERBICIDAL ACTIVITY (% CONTROL) SOY. The essentials:
as §1

For test [3], the system named is green foxtail. The test is described as follows: postemergence herbicidal activity on green foxtail. The class given is in vivo. Particulars: Setaria viridis, post-emergence, 0.3 Kg/Ha, after 12-17 days, read-out: POSTEMERGENCE HERBICIDAL ACTIVITY (% CONTROL) SETVI. Put shortly: as §1
Test [4] relates to blackgrass. The test is described as follows: preemergence herbicidal activity on blackgrass. The class given is in vivo, Aloepecurus myosuroides. Particulars: Alopecurus myosuroides, pre-emergence, 0.3 Kg/Ha, after 12-17 days, read-out: PREEMERGENCE HERBICIDAL ACTIVITY (% CONTROL) ALOMY. Put shortly:
as §1

Test [5] has as its system soybean. Kind of test: postemergence herbicidal activity on soybean. It is filed as in vivo, Glycine max var. Winchester. Particulars: Glycine max, post-emergence, 0.3 Kg/Ha, after 12-17 days, read-out: POSTEMERGENCE HERBICIDAL ACTIVITY (% CONTROL) SOY. Put shortly:
as §1

Test [6] concerns johnsongrass. The test is described as follows: postemergence herbicidal activity on johnsongrass. The class given is in vivo. Particulars: Sorghum halepense, post-emergence, 0.3 Kg/Ha, after 12-17 days, read-out: POSTEMERGENCE HERBICIDAL ACTIVITY (% CONTROL) SORHA. The essentials: as §1
Test [7] has as its system corn. The test is described as follows: preemergence herbicidal activity on corn. The class given is in vivo, Zea mays var. Pioneer 3732. Particulars: Zea mays, pre-emergence, 0.3 Kg/Ha, after 12-17 days, read-out: PREEMERGENCE HERBICIDAL ACTIVITY (% CONTROL) CRN. The essentials:
as §1

Test [8] relates to morningglory. Kind of test: preemergence herbicidal activity on morningglory. The class given is in vivo, Ipomea lacunosa or Ipomea hederacea. The note with it: Ipomoea, pre-emergence, 0.3 Kg/Ha, after 12-17 days, read-out: PREEMERGENCE HERBICIDAL ACTIVITY (% CONTROL) IPOSS. Put shortly:
as §1

Test [9] deals with corn. The test is described as follows: postemergence herbicidal activity on corn. It is filed as in vivo, Zea mays var. Pioneer 3732. The note with it: Zea mays, post-emergence, 0.3 Kg/Ha, after 12-17 days, read-out: POSTEMERGENCE HERBICIDAL ACTIVITY (% CONTROL) CRN. Put shortly:
as §1

The subject of test [10] is cocklebur. The test is described as follows: preemergence herbicidal activity on cocklebur. The class given is in vivo, Xanthium strumarium L. The note with it: Xanthium strumarium, pre-emergence, 0.3 Kg/Ha, after 12-17 days, read-out: PREEMERGENCE HERBICIDAL ACTIVITY (% CONTROL) XANPE. As for the experimental part:
The (oxaalkyl)phenyl-substituted heterocycles of this invention were tested for pre- and postemergence herbicidal activity using a variety of crops and weeds. The test plants included soybean (Glycine max var. Winchester),field corn (Zea mays var. Pioneer 3732), wheat (Triticum aestivum var. Lew), morningglory (Ipomea lacunosa or Ipomea hederacea), […] (Abutilon theophrasti), green foxtail (Setaria viridis), Johnsongrass (Sorghum halepense), blackgrass (Aloepecurus myosuroides), common chickweed (Stellaria media), and common cocklebur (Xanthium strumarium L.).
For preemergence testing, two disposable fiber flats (8 cm×15 cm×25 cm) for each rate of application of each candidate herbicide were filled to an approximate depth of 6.5 cm with steam-sterilized sandy loam soil. The soil was leveled and impressed with a template to provide five evenly spaced furrows 13 cm long and 0.5 cm deep in each flat. Seeds of soybean, wheat, corn, green foxtail, and johnsongrass were planted in the furrows of the first flat, and seeds of velvetleaf, morningglory, common chickweed, cocklebur, and blackgrass were planted in the furrows of the second flat. The five-row template was employed to firmly press the seeds into place. A topping soil of equal portions of sand and sandy loam soil was placed uniformly on top of each flat to a depth of approximately 0.5 cm. Flats for postemergence testing were prepared in the same manner except that they were planted 9-14 days prior to the preemergence flats and were placed in a greenhouse and watered, thus allowing the seeds to germinate and the foliage to develop.
In both pre- and postemergence tests, a stock solution of the candidate herbicide was prepared by dissolving 0.27 g of the compound in 20 mL of water/acetone (50/50) containing 0.5% v/v sorbitan monolaurate. For an application rate of 3000 g/ha of herbicide a 10 mL portion of the stock solution was diluted with water/acetone (50/50) to 45 mL.
The preemergence flats were initially subjected to a light water spray. The four flats were placed two by two along a conveyor belt (i.e., the two preemergence followed by the two postemergence flats). The conveyor belt fed under a spray nozzle mounted about ten inches above the postemergent foliage. The preemergent flats were elevated on the belt so that the soil surface was at the same level below the spray nozzle as the foliage canopy of the postemergent plants. The spray of herbicidal solution was commenced and once stabilized, the flats were passed under the spray at a speed to receive a coverage equivalent of 1000 L/ha. At this coverage the application rates are those shown in the above table for the individual herbicidal solutions. The preemergence flats were watered immediately thereafter, placed in the greenhouse and watered regularly at the soil surface. The postemergence flats were immediately placed in the green-house and not watered until 24 hours after treatment with the test solution. Thereafter they were regularly watered at ground level. After 12-17 days the plants were examined and the phytotoxicity data were recorded.
Phytotoxicity data were taken as percent control. Percent control was by a method similar to the 0 to 1 00 rating system disclosed in "Research Methods in Weed Science," 2nd ed., B. Truelove, Ed.; Southern Weed Science Society; Auburn University, Auburn, Ala., 1977.

Test [11] relates to velvetleaf. The test is described as follows: postemergence herbicidal activity on velvetleaf. The class given is in vivo. The note with it: Abutilon theophrasti, post-emergence, 0.3 Kg/Ha, after 12-17 days, read-out: POSTEMERGENCE HERBICIDAL ACTIVITY (% CONTROL) ABUTH. Put shortly: as §1
The test system of test [12] is chickweed. The test is described as follows: preemergence herbicidal activity on chickweed. It is filed as in vivo. The note with it: Stellaria media, pre-emergence, 0.3 Kg/Ha, after 12-17 days, read-out: PREEMERGENCE HERBICIDAL ACTIVITY (% CONTROL) STEME. Put shortly:
as §1

Test [13] has as its system johnsongrass. Kind of test: preemergence herbicidal activity on johnsongrass. It is filed as in vivo. Particulars: Sorghum halepense, pre-emergence, 0.3 Kg/Ha, after 12-17 days, read-out: PREEMERGENCE HERBICIDAL ACTIVITY (% CONTROL) SORHA. The essentials:
as §1

Test [14] has as its system velvetleaf. The test is described as follows: preemergence herbicidal activity on velvetleaf. The class given is in vivo. Particulars: Abutilon theophrasti, pre-emergence, 0.3 Kg/Ha, after 12-17 days, read-out: PREEMERGENCE HERBICIDAL ACTIVITY (% CONTROL) ABUTH. Put shortly: as §1
Test [15] concerns wheat. The test is described as follows: postemergence herbicidal activity on wheat. The class given is in vivo, Triticum aestivum var. Lew. The note with it: Triticum aestivum, post-emergence, 0.3 Kg/Ha, after 12-17 days, read-out: POSTEMERGENCE HERBICIDAL ACTIVITY (% CONTROL) WHT. The essentials:
as §1

The subject of test [16] is wheat. The test is described as follows: preemergence herbicidal activity on wheat. The class given is in vivo, Triticum aestivum var. Lew. The note with it: Triticum aestivum, pre-emergence, 0.3 Kg/Ha, after 12-17 days, read-out: PREEMERGENCE HERBICIDAL ACTIVITY (% CONTROL) WHT. Put shortly: as §1
For test [17], the system named is cocklebur. The test is described as follows: postemergence herbicidal activity on cocklebur. The note with it: Xanthium strumarium, post-emergence, 0.3 Kg/Ha, after 12-17 days, read-out: POSTEMERGENCE HERBICIDAL ACTIVITY (% CONTROL) XANPE. The class given is in vivo, Xanthium strumarium L. Put shortly: as §1
In test [18] the test system is chickweed. Kind of test: postemergence herbicidal activity on chickweed. The note with it: Stellaria media, post-emergence, 0.3 Kg/Ha, after 12-17 days, read-out: POSTEMERGENCE HERBICIDAL ACTIVITY (% CONTROL) STEME. The class given is in vivo. The essentials: as §1
In test [19] the test system is blackgrass. The test is described as follows: postemergence herbicidal activity on blackgrass. Particulars: Alopecurus myosuroides, post-emergence, 0.3 Kg/Ha, after 12-17 days, read-out: POSTEMERGENCE HERBICIDAL ACTIVITY (% CONTROL) ALOMY. The class given is in vivo, Aloepecurus myosuroides. Put shortly: as §1
Test [20] has as its system morningglory. Kind of test: postemergence herbicidal activity on morningglory. It is filed as in vivo, Ipomea lacunosa or Ipomea hederacea. The note with it: Ipomoea, post-emergence, 0.3 Kg/Ha, after 12-17 days, read-out: POSTEMERGENCE HERBICIDAL ACTIVITY (% CONTROL) IPOSS. Put shortly:
as §1

For `Cn1c(C(F)(F)F)cc(=O)n(-c2cc(CC(Cl)C(C)(C)O)c(Cl)cc2F)c1=O` (centres unmarked) [Compound 1, 2-CHLORO-3-METHYL-1-[2-CHLORO-4-FLUORO-5-[1-METHYL-6-TRIFLUOROMETHYL-2,4(1H,3H)-PYRIMIDINDION-3-YL]PHENYL]BUTAN-3-OL], the activity at 300 g/ha came to 100% with green foxtail [1]; 100% in the test on soybean [2]; 100% with green foxtail [3]; 80% with blackgrass [4]; 100% in the test on soybean [5]; 100% in the test with johnsongrass [6]. Besides, the activity at 300 g/ha was 95% with corn [7]; 100% in the test on morningglory [8]; 100% with corn [9]; 95% with cocklebur [10]; 100% in the test with velvetleaf [11]; 100% in the test with chickweed [12]. Besides, the activity at 300 g/ha in the test on johnsongrass [13] came out at 95%; in the test with velvetleaf [14], 100%; in the test on wheat [15], 90%; in the test on wheat [16] it was 80%; with cocklebur [17], 100%; in the test on chickweed [18], 100%. Further, the activity at 300 g/ha in the test on blackgrass [19] came out at 80%; in the test on morningglory [20] it was 100%.
